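Results reflect a 48-hour exposure of cells in 96-well plates to compound at five concentrations. GI50: concentration for 50% inhibition of growth.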 Activity calls are given as the source filed them. Cut-off read from the data, not from the text of the source: active = GI50 up to about 1.1 µM and inactive = higher. Where a SMILES comes first, the peptide text is derived from it. [ ]: non-standard residue; d: D form. The star is where a group is joined. ξ: configuration not given here. ξD = NC(CC(=O)O)C(=O)O; Boc = CC(C)(C)OC(=O)*; Aib = CC(C)(N)C(=O)O; OBn = c1ccc(CO*)cc1
Key:
Test in all cases: NCI anticancer screen, dose series, 48 h
A549 = tested on: A549
BT-549 = tested on: BT-549
SK-MEL-2 = tested on: SK-MEL-2
SNB-75 = tested on: SNB-75
SK-MEL-28 = tested on: SK-MEL-28
NCI-H460 = tested on: NCI-H460
CAKI-1 = tested on: CAKI-1
Hs-578T = tested on: Hs-578T
SF-268 = tested on: SF-268
M14 = tested on: M14
MDA-MB-435 = tested on: MDA-MB-435
DU-145 = tested on: DU-145
PC-3 = tested on: PC-3
RXF 393 = tested on: RXF 393
K562 = tested on: K562
SF-539 = tested on: SF-539
SK-MEL-5 = tested on: SK-MEL-5
LOX IMVI = tested on: LOX IMVI
HL-60 = tested on: HL-60

Measured: GI50

Clc1cc(N/N=C(/c2ccccc2)c2ncccn2)ncn1
inactive: A549 26 µM | BT-549 38.5 µM | SK-MEL-2 32.7 µM | SNB-75 26.1 µM | SK-MEL-28 36.9 µM | NCI-H460 19.3 µM | CAKI-1 7.96 µM | Hs-578T 24.5 µM | SF-268 34 µM | M14 29 µM | MDA-MB-435 48.3 µM | DU-145 39.2 µM | PC-3 32.7 µM | RXF 393 19.8 µM | K562 9.1 µM | SF-539 21.9 µM | SK-MEL-5 25.8 µM

CC(C)(C)OC(=O)NC(CC(=O)OCc1ccccc1)C(=O)NC(C)(C)C(N)=O (configuration not stated) (Boc-[ξD](OBn)-[Aib]-NH2)
inactive: A549 > 100 µM | BT-549 > 100 µM | SK-MEL-2 > 100 µM | SNB-75 > 100 µM | SK-MEL-28 > 100 µM | NCI-H460 > 100 µM | CAKI-1 > 100 µM | Hs-578T > 100 µM | SF-268 > 100 µM | M14 > 100 µM | MDA-MB-435 > 100 µM | DU-145 > 100 µM | PC-3 > 100 µM | RXF 393 > 100 µM | K562 > 100 µM | SF-539 > 100 µM | SK-MEL-5 > 100 µM | LOX IMVI > 100 µM

COc1ccc(C(=O)c2sc(Nc3ccccc3)nc2N)cc1
inactive: A549 24.2 µM | BT-549 > 100 µM | SK-MEL-2 4.88 µM | HL-60 2.2 µM | SK-MEL-28 > 100 µM | NCI-H460 > 100 µM | Hs-578T 23.3 µM | SF-268 28.4 µM | M14 > 100 µM | MDA-MB-435 1.36 µM | DU-145 > 68.9 µM | PC-3 > 72.8 µM | RXF 393 13.4 µM | K562 2.25 µM | SF-539 14.3 µM | SK-MEL-5 > 100 µM | LOX IMVI > 100 µM

O=C(O)/C=C\C(=O)Nn1c(Cc2ccc(Cl)cc2)n[nH]c1=O
inactive: A549 > 100 µM | BT-549 > 100 µM | SK-MEL-2 > 100 µM | HL-60 > 100 µM | NCI-H460 > 100 µM | CAKI-1 > 100 µM | Hs-578T > 100 µM | SF-268 > 100 µM | M14 > 100 µM | MDA-MB-435 > 100 µM | DU-145 > 100 µM | PC-3 > 100 µM | RXF 393 > 100 µM | K562 > 100 µM | SF-539 > 100 µM | SK-MEL-5 > 100 µM

Cc1ccc(C)n1-n1c(Cc2ccc(Cl)cc2)n[nH]c1=O
inactive: A549 69 µM | BT-549 71.1 µM | SK-MEL-2 31 µM | SNB-75 > 100 µM | SK-MEL-28 > 100 µM | NCI-H460 > 100 µM | CAKI-1 90.6 µM | Hs-578T > 100 µM | SF-268 > 100 µM | M14 > 100 µM | MDA-MB-435 > 100 µM | DU-145 > 100 µM | PC-3 39.2 µM | RXF 393 59.3 µM | K562 41.1 µM | SK-MEL-5 51.8 µM | LOX IMVI 59.4 µM

CC(=O)Nc1ccc(NCC(=O)Nn2cnc3ccc(S(=O)(=O)Nc4ccc(NC(C)=O)cc4)cc3c2=O)cc1
inactive: A549 > 100 µM | BT-549 > 100 µM | SK-MEL-2 > 100 µM | SNB-75 > 100 µM | HL-60 > 100 µM | SK-MEL-28 > 100 µM | NCI-H460 > 100 µM | CAKI-1 > 100 µM | Hs-578T > 100 µM | SF-268 > 100 µM | M14 > 100 µM | MDA-MB-435 > 100 µM | DU-145 > 100 µM | PC-3 > 100 µM | K562 > 100 µM | SF-539 > 100 µM | LOX IMVI > 100 µM

CC(C)(C)OC(=O)N1CCC(C(=O)O)CC1
inactive: A549 > 100 µM | BT-549 > 100 µM | SK-MEL-2 > 100 µM | SNB-75 > 100 µM | HL-60 > 100 µM | SK-MEL-28 > 100 µM | NCI-H460 > 100 µM | CAKI-1 > 100 µM | Hs-578T > 100 µM | SF-268 > 100 µM | M14 > 100 µM | MDA-MB-435 > 100 µM | DU-145 > 100 µM | PC-3 > 100 µM | SF-539 > 100 µM | SK-MEL-5 > 100 µM | LOX IMVI > 100 µM

C=C1CC[C@@]2(C)[C@@H]([C@@H]1C)[C@H]1CC[C@@H]3[C@@]4(C)CC[C@H](O)C(C)(C)[C@@H]4CC[C@@]3(C)[C@]1(C)C[C@@H]2O
inactive: A549 2.05 µM | BT-549 10 µM | SK-MEL-2 3.67 µM | HL-60 1.53 µM | SK-MEL-28 4.12 µM | NCI-H460 2.11 µM | CAKI-1 2.42 µM | Hs-578T 2.69 µM | SF-268 2.28 µM | M14 4.66 µM | MDA-MB-435 4.22 µM | DU-145 4.57 µM | PC-3 2.86 µM | RXF 393 1.77 µM | SF-539 2.45 µM | SK-MEL-5 5.16 µM | LOX IMVI 1.99 µM

CCOC(=O)c1cnn2c1ncc1c(=O)n(NC(N)=O)ccc12
inactive: A549 > 100 µM | BT-549 94.8 µM | SK-MEL-2 > 100 µM | SNB-75 > 100 µM | HL-60 > 100 µM | SK-MEL-28 > 100 µM | NCI-H460 > 100 µM | CAKI-1 > 100 µM | Hs-578T > 100 µM | SF-268 > 100 µM | M14 > 100 µM | MDA-MB-435 > 100 µM | DU-145 > 100 µM | PC-3 > 100 µM | SF-539 > 100 µM | SK-MEL-5 > 100 µM | LOX IMVI > 100 µM

COc1ccc(NC(=O)/C(=N\NC(=O)C[n+]2ccccc2)c2c(O)c3ccc(O)cc3oc2=O)c([N+](=O)[O-])c1
inactive: A549 > 100 µM | BT-549 > 100 µM | SK-MEL-2 > 100 µM | SNB-75 92 µM | HL-60 > 100 µM | SK-MEL-28 > 100 µM | NCI-H460 > 100 µM | CAKI-1 > 100 µM | Hs-578T > 100 µM | SF-268 > 100 µM | M14 > 100 µM | MDA-MB-435 > 100 µM | DU-145 > 100 µM | PC-3 > 100 µM | K562 > 100 µM | SF-539 > 100 µM | SK-MEL-5 > 100 µM | LOX IMVI > 100 µM

CCCC(=O)N/S(=N/S(=O)(=O)c1ccc(Cl)cc1)C(Cl)(Cl)Cl (configuration not stated)
inactive: A549 > 100 µM | BT-549 > 100 µM | SK-MEL-2 16.5 µM | HL-60 > 100 µM | SK-MEL-28 > 100 µM | NCI-H460 > 100 µM | Hs-578T > 100 µM | SF-268 > 100 µM | M14 > 100 µM | MDA-MB-435 > 100 µM | DU-145 > 100 µM | PC-3 > 100 µM | RXF 393 > 100 µM | K562 > 100 µM | SF-539 > 100 µM | SK-MEL-5 > 100 µM

From ChEMBL document CHEMBL1201862, “PubChem BioAssay data set” (2004)
